Laboratory results taken from US20250326771A1, “PIPERAZINE DERIVATIVES USEFUL IN HIV THERAPY” (VIIV HEALTHCARE COMPANY, priority 2022, published 2025).

Key:
XIAP-BIR3 = XIAP-BIR3 (Homo sapiens (Human), UniProt P98170); assay: BIR binding assay (FRET competition), XIAP BIR3; conditions: for XIAP BIR3 vs BIR2 separation window: fold separation (FS) for XIAP
Method in brief: (§1)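 615/665 nm FRET ratio. Compound, His-domain and 200 nM AF647-SMAC peptide incubated 60 min, then 2 nM Eu-W1024 for 30 min. Domains: cIAP1-BIR3 50 nM; XIAP-BIR3 100 nM; cIAP1-BIR2, cIAP2-BIR2 325 nM each. 15-pt 3-fold series; variable-slope IC50.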

cIAP1-BIR3 = cIAP1-BIR3 (Homo sapiens (Human), UniProt Q13490); assay: BIR binding assay (FRET competition), cIAP1 BIR3; conditions: for cIAP1 BIR3 vs BIR2 separation window: fold separation (FS) for cIAP1
cIAP1-BIR3, sequence (Q13490 253-363): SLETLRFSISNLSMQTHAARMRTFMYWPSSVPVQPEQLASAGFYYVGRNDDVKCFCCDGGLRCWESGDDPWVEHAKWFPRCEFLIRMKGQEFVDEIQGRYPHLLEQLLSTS
Method in brief: as §1

cIAP2-BIR2 = cIAP2-BIR2 (Homo sapiens (Human), UniProt Q13489); assay: BIR binding assay (FRET competition), cIAP2 BIR2
cIAP2-BIR2, sequence (Q13489 158-242): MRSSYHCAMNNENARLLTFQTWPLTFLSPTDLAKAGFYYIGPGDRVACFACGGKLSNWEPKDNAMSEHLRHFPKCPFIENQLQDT
Method in brief: as §1

[1] = tested on: Jurkat HIV-luciferase clones; assay: Jurkat latency reversal assay; assay type: cell-based; conditions: Homo sapiens, 48 h; Jurkat latency reversal assay potency; read-out: Jurkat pEC50 (converted)
Method in brief: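 Luminescence read-out: Steady-Glo after 48 h, 37° C, on mixed Jurkat HIV-luc clones (C16, 115, N6; 5,000 cells/well total). Cpd 14-pt 3-fold dilutions, duplicate, top 10 μM, 0.5% DMSO. EC50 + max % activation vs vehicle via 4-parameter fit.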

cIAP1-BIR2 = cIAP1-BIR2 (Homo sapiens (Human), UniProt Q13490); assay: BIR binding assay (FRET competition), cIAP1 BIR2
cIAP1-BIR2, sequence (Q13490 173-257): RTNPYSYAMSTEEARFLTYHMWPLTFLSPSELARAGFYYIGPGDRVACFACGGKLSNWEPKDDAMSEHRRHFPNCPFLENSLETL
Method in brief: as §1

XIAP-BIR2 = XIAP-BIR2 (Homo sapiens (Human), UniProt P98170); assay: BIR binding assay (FRET competition), XIAP BIR2; conditions: FRET competition binding; read-out: XIAP BIR2 (pIC50) (converted)
XIAP-BIR2, sequence (P98170 124-240): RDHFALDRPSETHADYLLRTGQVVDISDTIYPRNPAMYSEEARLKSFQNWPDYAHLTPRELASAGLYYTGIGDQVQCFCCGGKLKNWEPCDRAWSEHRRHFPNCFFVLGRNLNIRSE
Method in brief: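 Competitive TR-FRET used His-tagged XIAP-BIR2 (200 nM) and 200 nM AlexaFluor647-labelled AVPIAQKSE SMAC peptide in HEPES buffer pH 7.4 with CHAPS, glycerol and DTT, incubated 60 min before 30 min with 2 nM Eu-W1024. The 615/665 nm ratio from a 15-point, 3-fold series was fit with a four-parameter model for IC50/pIC50.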

cIAP2-BIR3 = cIAP2-BIR3 (Homo sapiens (Human), UniProt Q13489); assay: BIR binding assay (FRET competition), cIAP2 BIR3; conditions: for cIAP2 BIR3 vs BIR2 separation window: fold separation (FS) for cIAP2
cIAP2-BIR3, sequence (Q13489 238-349): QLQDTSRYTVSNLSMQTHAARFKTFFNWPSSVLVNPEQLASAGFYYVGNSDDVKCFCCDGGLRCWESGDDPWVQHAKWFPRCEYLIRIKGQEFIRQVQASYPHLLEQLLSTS

XIAP-BIR3, sequence (P98170 241-356): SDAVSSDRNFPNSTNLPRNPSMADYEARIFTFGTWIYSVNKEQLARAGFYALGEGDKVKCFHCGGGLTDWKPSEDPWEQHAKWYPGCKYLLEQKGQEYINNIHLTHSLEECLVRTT

SMILES | IC50 (XIAP-BIR3) [nM] | XIAP BIR3 vs BIR2 separation window (XIAP-BIR3) | IC50 (cIAP1-BIR3) [nM] | cIAP1 BIR3 vs BIR2 separation window (cIAP1-BIR3) | IC50 (cIAP2-BIR2) [nM] | EC50 [1] [nM] | IC50 (cIAP1-BIR2) [nM] | IC50 (XIAP-BIR2) [nM] | IC50 (cIAP2-BIR3) [nM] | cIAP2 BIR3 vs BIR2 separation window (cIAP2-BIR3)
C[C@@H]1CN(CC(=O)N2CC(C)(C)c3[nH]c(=O)c(Cc4ccc(F)cc4)cc32)[C@@H](CN2CCC(CNC(=O)Cc3ccc(CC(=O)NCC4CCN(C[C@H]5CN[C@H](C)CN5CC(=O)N5CC(C)(C)c6[nH]c(=O)c(Cc7ccc(F)cc7)cc65)CC4)cc3)CC2)CN1 [Example 102, 2,2′-(1,4-phenylene)bis(N-((1-(((2R,5R)-1-(2-(6-(4-fluorobenzyl)-3,3-dimethyl-5-oxo-2,3,4,5-tetrahydro-1H-pyrrolo[3,2-b]pyridin-1-yl)-2-oxoethyl)-5-methylpiperazin-2-yl)methyl)piperidin-4-yl)methyl)acetamide)] | 7.94 to 15.8 | ++++ (FS>10,000) | 7.94 to 15.8 | +++ (10,000>FS>1,000) | 3160 to 10000 | 63.1 to 316 | 3160 to 10000 | 10000 to 51300 | 7.94 to 15.8 | ++++ (FS>10,000)
C[C@@H]1CN(CC(=O)N2CC(C)(C)c3[nH]c(=O)c(Cc4ccc(F)cc4)cc32)[C@@H](CN2CCC(CCNC(=O)c3ccc(C(=O)NCCC4CCN(C[C@H]5CN[C@H](C)CN5CC(=O)N5CC(C)(C)c6[nH]c(=O)c(Cc7ccc(F)cc7)cc65)CC4)cc3)CC2)CN1 [Example 103, N^1,N^4-bis(2-(1-(((2R,5R)-1-(2-(6-(4-fluorobenzyl)-3,3-dimethyl-5-oxo-2,3,4,5-tetrahydro-1H-pyrrolo[3,2-b]pyridin-1-yl)-2-oxoethyl)-5-methylpiperazin-2-yl)methyl)piperidin-4-yl)ethyl)terephthalamide] | 7.94 to 15.8 | ++++ (FS>10,000) | 7.94 to 15.8 | +++ (10,000>FS>1,000) | 3160 to 10000 | 63.1 to 316 | 3160 to 10000 | 10000 to 51300 | 7.94 to 15.8 | +++ (10,000>FS>1,000)
C[C@@H]1CN(CC(=O)N2CC(C)(C)c3[nH]c(=O)c(Cc4ccc(F)cc4)cc32)[C@@H](CN2CCC(CCN(C)C(=O)c3ccc(C(=O)N(C)CCC4CCN(C[C@H]5CN[C@H](C)CN5CC(=O)N5CC(C)(C)c6[nH]c(=O)c(Cc7ccc(F)cc7)cc65)CC4)cc3)CC2)CN1 [Example 104, N^1,N^4-bis(2-(1-(((2R,5R)-1-(2-(6-(4-fluorobenzyl)-3,3-dimethyl-5-oxo-2,3,4,5-tetrahydro-1H-pyrrolo[3,2-b]pyridin-1-yl)-2-oxoethyl)-5-methylpiperazin-2-yl)methyl)piperidin-4-yl)ethyl)-N^1,N^4-dimethylterephthalamide] | 1.38 to 7.94 | ++++ (FS>10,000) | 1.38 to 7.94 | +++ (10,000>FS>1,000) | 1000 to 3160 | 63.1 to 316 | 1000 to 3160 | 10000 to 51300 | 1.38 to 7.94 | +++ (10,000>FS>1,000)
C[C@@H]1CN(CC(=O)N2CC(C)(C)c3[nH]c(=O)c(Cc4ccc(F)cc4)cc32)[C@@H](CN2CCC(CC(=O)NCc3ccc(CNC(=O)CC4CCN(C[C@H]5CN[C@H](C)CN5CC(=O)N5CC(C)(C)c6[nH]c(=O)c(Cc7ccc(F)cc7)cc65)CC4)cc3)CC2)CN1 [Example 105, N,N′-(1,4-phenylenebis(methylene))bis(2-(1-(((2R,5R)-1-(2-(6-(4-fluorobenzyl)-3,3-dimethyl-5-oxo-2,3,4,5-tetrahydro-1H-pyrrolo[3,2-b]pyridin-1-yl)-2-oxoethyl)-5-methylpiperazin-2-yl)methyl)piperidin-4-yl)acetamide)] | 7.94 to 15.8 | ++++ (FS>10,000) | 7.94 to 15.8 | +++ (10,000>FS>1,000) | 3160 to 10000 | 63.1 to 316 | 3160 to 10000 | 10000 to 51300 | 7.94 to 15.8 | +++ (10,000>FS>1,000)
